Measured values: patent US12582719B2, “Chimeric compounds and methods of managing neurological disorders or conditions” (Emory University, priority 2019, dated 2026)
“Also recorded” adds a separate entry of the source.

How the values were obtained:
[1] = system: antidepressant-like activity in animal models; experiment: In vivo screening in animal models (antidepressant-like activity); conditions: compared with PDX-101 (belinostat)
[2] = system: LPS-induced depressive behavior (immobility); experiment: Tail suspension test (TST) with lipopolysaccharide-induced depressive behavior; format: in vivo, mice
Protocol: Randomly selected NIH Swiss adult male mice (7 weeks, ˜30 g) were divided into three groups of 5 mice in per group. LPS (Lipopolysaccharide) was administered as does 850 μg/kg in saline 100 μL intraperitoneally. After 1 h, chimeric compound (HM3a-R, FIG. 2A) or belinostat (Spectrum Pharmaceutical, Irvine, CA) was injected into mice as does 75 mg/kg in vehicle 100 μL intraperitoneally. Then the compounds were dissolved in 10% dimethyl sulfoxide and 90% vehicle mixture. Vehicle formulation is 45% (2-hydroxypropyl)-β-cyclodextrin solution. After 6 h and 24 h, tail suspension test was performed. Every tail-hanged mouse was video-recorded for 6 minutes. […] The tail suspension test (TST) was performed to assess antidepressant-like activity using lipopolysaccharide (LPS) which is an endotoxin that causes depressive behavior in mice. The antidepressant activities of HM3a-R and belinostat were compared with a control.

[3] = system: xylene-induced ear edema; experiment: Xylene-induced mouse ear edema test; format: in vivo, mice; conditions: for anti-inflammation effect compared with the control group against xylene-induced ear edema: 10 mg/kg intraperitoneally, C57BL female mice, 2 h after xylene
Protocol: Randomly selected C57BL adult female mice (6 weeks, ˜20 g) were divided into three groups of five mice in per group. Chimeric compounds (HM3a-R, HM3a-S, FIG. 2A) were dissolved in 10% dimethyl sulfoxide and 90% vehicle mixture. Vehicle formulation is 45% (2-hydroxypropyl)-β-cyclodextrin solution. And then, the compounds or vehicle were injected into mice as does 10 mg/kg and injection volume 100 μL intraperitoneally. After 30 min, mice treated 30 μL of xylene on the anterior and posterior surfaces of the right ear lobe, the left ear was considered as control. Two hours later, mice were sacrificed by using CO2 gas and both ears were cut off by using a cork borer with a diameter of 7 mm and weighed and the percentage of ear edema was calculated based on the weight of another ear without xylene.

[4] = system: carrageenan-induced paw edema; experiment: Carrageenan-induced paw edema model; conditions: in vivo
[5] = system: histone H4 deacetylation; experiment: In vitro HDACI activity test (western blot, acetylated histone H4); format: cell-based; conditions: 9 L rat glioma cell line; for histone H4 acetylation: 5 μM, western blot
Protocol: The HDACI activity chimeric compounds were tested by western blot using a specific antibody against acetylated histone H4, and 9 L rat glioma cell line. the inhibitory activity of HM3a-R was analyzed at different concentrations (1 μM or 5 μM) on histone H4 deacetylation, compared with established HDACi, entinostat, (pyridin-3-yl)methyl-4-(2-aminophenylcarbamoyl)benzylcarbamate, MS-275 (1 μM or 5 μM) as positive controls.

[6] = Cellular toxicity; format: cell-based
[7] = system: immobility in forced swim test; experiment: Forced swimming test (FST); format: in vivo, mice; conditions: for improvement in forced-swim test (antidepressant-like activity): C57BL female mice, 6 h after injection, versus control
Protocol: The FST experiment was performed twice, the first experiment comparing the control group and the HM3a-R group, and the second experiment comparing the control group and the belinostat group. In the first FST, randomly selected C57BL adult female mice (6 weeks, 20 g) were divided into two groups of eight mice per group. And the second FST, randomly selected C57BL adult female mice (6 weeks, 20 g) were divided into two groups of five mice per group. Chimeric compounds, HM3a-R (FIG. 2A) was dissolved in 10% dimethyl sulfoxide and 90% vehicle mixture. Vehicle formulation is 45% (2-hydroxypropyl)-β-cyclodextrin solution. Then, HM3a-R or belinostat as dose 75 mg/kg or vehicle (for control) was injected into mice with 100 μL volume intraperitoneally. After 6 h, two 3-liter beakers were filled approximately with 2 L water at 25+/-0.5 degrees Celsius. Camcorder was placed, directly across from two beakers. Each pair of mice (i.e., one control mouse and one treated mouse) was placed into each beaker. Every trial was video recorded in this manner for 10 minutes. While the beakers were adjacent to each other, they were enclosed by cardboard boxes. The immobile times (between 2 and 8 minutes of 10-minute trial) for each pair of mice were counted by the person who was blinded to the identities of the control and treated mice pairs.

[8] = system: antidepressant-like behavioral effects; conditions: behaviorally inactive dose of ACY-738 co-administered with sub-effective dose of citalopram; cited from earlier work
[9] = system: depressive symptoms among GBM patients; experiment: Clinical trial of vorinostat in recurrent glioblastoma, depression assessed by IDS-SR; format: in vivo, human
Protocol: A clinical trial was performed to evaluate vorinostat for the treatment of recurrent glioblastomas (GBM). Among the pleiotropic effects of HDAC inhibitors is the ability to attenuate inflammation, an action seen at concentrations lower than those required to slow cancer cell growth. GBM is frequently associated with neuroinflammation, which is thought to have pro-tumorigenic effects. […] Such changes are associated with recruitment of macrophages along a hypoxia-mediated chemotactic gradient. Macrophages recruited to hypoxic sites exert tumor-promoting effects through the expression of genes with mitogenic, angiogenic, and migration/invasion stimulating properties. Abrogating inflammatory changes associated with GBM might reduce or eliminate access to these tumor-promoting effects. Another intriguing effect of HDACis as anticancer agents might be their mood-enhancing, potentially anti-depressant, properties. In mice, decreased histone acetylation in key mood-relevant genes was found following chronic social defeat stress, a mouse model of depression. […]
During the clinical trial, levels of depression were assessed using the Inventory of Depressive Symptomatology-Self Report (IDS-SR) to determine whether vorinostat alters the severity of depressive symptoms among GBM patients. […]

[10] = 75 mg/kg intraperitoneally, LPS 850 μg/kg, NIH Swiss male mice

## COC(=O)[C@]1(c2ccc(Cl)c(Cl)c2)C[C@H]1CNCc1ccc(C(=O)NO)cc1 [HM3a-R, (1R,2R)-methyl-1-(3,4-dichlorophenyl)-2-(((4-(hydroxycarbamoyl)benzyl)amino)methyl) cyclopropane-1-carboxylate]
[1]
  antidepressant-like activity and onset time in animal models: excellent antidepressant-like activity and fast onset time
[2]; [10]
  duration of immobility in TST at 6 h: significantly reduced duration of immobility; also recorded: reduction in immobility
[2]; 75 mg/kg intraperitoneally, LPS 850 μg/kg, NIH Swiss male mice, 24 h
  duration of immobility in TST at 24 h: as effective as belinostat; also recorded: reduction in immobility
[2]; P<0.01, n=5
  onset of antidepressant action in TST versus belinostat: faster onset of antidepressant action
[3]
  anti-inflammation effect compared with the control group against xylene-induced ear edema: 48%
[3]; FIG. 3
  effectiveness against ear inflammation, comparison of enantiomers: more effective than HM3a-S
[4]
  effectiveness against carrageenan-induced paw edema, comparison of enantiomers: more effective
[5]
  histone H4 acetylation: increased histone H4 acetylation
[6]
  cellular toxicity: without cellular toxicity
[7]; 75 mg/kg intraperitoneally, 6 h, P<0.05
  duration of immobility in FST: significantly less duration of immobility
[7]; 75 mg/kg intraperitoneally
  improvement in forced-swim test (antidepressant-like activity): 23%
[7]; 23% vs. 12%
  antidepressant-like activity in FST relative to belinostat: almost two-fold

## O=C(/C=C/c1cccc(S(=O)(=O)Nc2ccccc2)c1)NO [belinostat, reference compound]
[2]; [10]
  duration of immobility in TST at 6 h: didn't show any effect
[7]; 75 mg/kg intraperitoneally
  improvement in forced-swim test (antidepressant-like activity): 12%

## O=C(NO)c1cnc(NC2(c3ccccc3)CC2)nc1 [ACY-738]
[8]
  effects comparable to a higher dose of citalopram administered alone: ~40 fold

## O=C(CCCCCCC(=O)Nc1ccccc1)NO [vorinostat]
[9]; 7 days of vorinostat treatment
  GBM patients with improved IDS-SR scores: 67%
[9]; most patients on treatment for more than 3 weeks
  side effect: fatigue

## COC(=O)[C@@]1(c2ccc(Cl)c(Cl)c2)C[C@@H]1CNCc1ccc(C(=O)NO)cc1 [HM3a-S, (1S,2S)-methyl-1-(3,4-dichlorophenyl)-2-(((4-(hydroxycarbamoyl)benzyl)amino)methyl) cyclopropane-1-carboxylate]
[3]
  anti-inflammation effect compared with the control group against xylene-induced ear edema: 23%

## Nc1ccccc1NC(=O)c1ccc(CNC(=O)OCc2cccnc2)cc1 [MS-275, (pyridin-3-yl)methyl-4-(2-aminophenylcarbamoyl)benzylcarbamate]
[5]; 1 μM and 5 μM
  inhibition of histone H4 deacetylation, comparison: higher inhibitions than HM3a-R
[5]
  histone H4 acetylation: increased histone H4 acetylation
